Experimental data taken from patent US9387213B2, “Small molecules inhibiting oncoprotein Myc” (Health Research, Inc., priority 2012, dated 2016).

Columns and labels:
HO-N-myc cells = assay: Secondary filter for Myc specificity: cell growth inhibition, methylene blue staining; assay type: cell-based, rat
Protocol: (§1) FIG. 4 illustrates the myc specificity of tested compounds. Rat1a cells expressing c-myc, L-myc or N-myc or lacking any Myc (null) were treated for 72 h with a range of hit compound concentrations. The cells were then fixed and stained with methylene blue and the percentage of cells in the presence of compound compared to DMSO only control was calculated.
(§2) Validated hits were divided into classes when two or more compounds shared significant structural similarity. The ID50 for N-myc transactivation (the inhibitory dose resulting in 50% decrease in luciferase activity) for each hit was calculated from the dose-response N-myc responsive reporter assay. Compounds within each class were ranked by their ID50 for N-myc transactivation and the best compounds within each class were chosen for further studies. In addition, the best of the structurally unique compounds were also analyzed. A total of 46 hits were passed through a secondary filter designed to determine the specificity of the hits for Myc proteins. For this filter, we used a panel of cell lines derived from Rat1a cells (kindly provided by Michael Cole, Dartmouth University): HO-null-c-Myc deficient cells due to homologous recombination that express neither N-myc nor L-myc HO-c-Myc, HO-L-myc and HO-N-myc derived by retroviral transduction of the corresponding Myc genes into HO-null cells. Since each cell line expresses only a single Myc or no Myc family members, we could identify compounds that act through Myc family members as well as which Myc family members. […] The 18 Myc-specific compounds identified during the screening and filtering process are presented in Table 1 and represent distinct classes of molecules, including pyrazoles (e.g., N147A7, N47E10, N147G5), tetrazoles (e.g., N77A7) and 3-bromophenol (e.g., N4G6).

HO-c-Myc cells = assay: as above; assay type: cell-based, rat
Protocol: as §1, §2

HO-null cells = assay: as above; assay type: cell-based; conditions: Rattus norvegicus, 72 h, read-out: ID50 HO-null
Protocol: as §1, §2

[1] = test system: panel of tumor cell lines, including neuroblastoma and melanoma; assay: Effect of Myc inhibitors against panel of tumor cell lines, growth/viability by MTS and resazurin; assay type: cell-based, human; conditions: neuroblastoma lines IMR32, NBL-WN, 72 h
Protocol: FIG. 6 illustrates putative Myc inhibitors that are efficacious against tumor but not normal cells. Melanocytes and melanoma (#3 and #10) (A) and neuroblastoma (B) were incubated in the continuous presence of Myc inhibitors for 72 h and cell growth/viability determined by standard MTS and resazurin methods, respectively. Data for three hits is presented as a percent of DMSO vehicle control.

SK-Mel-103 = assay: Suppression of proliferation / senescence induction in melanoma line; assay type: cell-based; conditions: Homo sapiens
Excerpt: (§3) 260 analogs of N77A7 were selected from several commercially available libraries of small molecules based on the structural similarities with N77A7. The compounds were screened for the ability to permanently suppress proliferation and induce senescence in cells from melanoma lines SK-Mel-19 and SK-Mel-103. Based on the above-described screening procedure, seven small molecules were identified as having IC50 values lower than that of N77A7.

SK-Mel-19 = assay: as above; assay type: cell-based; conditions: Homo sapiens, SK-MEL19
Excerpt: as §3

in vitro = conditions: microsomes, pH 7.4; for Percent Remaining 0 min: 0 h; for Percent Remaining 0 min / Percent Remaining 10 min / Percent Remaining 20 min / Percent Remaining 30 min / Percent Remaining 60 min: 1 μM; for Percent Remaining 30 min: 0.5 h; for Percent Remaining 60 min: 1 h
Protocol: Additionally, several of the N77A7 analogs were subjected to the test for the metabolic stability in human and mouse liver microsomes. Briefly, 1 μM of test compound was incubated with microsomal protein (human liver microsomes: 0.5 mg/mL; mouse liver microsomes 0.5 mg/mL) and buffer (100 mM potassium phosphate, pH 7.4, 5 mM magnesium chloride). The positive control was 5 μM testosterone. The reaction was equilibrated at 37 C in a shaking water bath for 3 to 5 minutes. After equilibration, an aliquot was removed and combined with 50/50 acetonitrile/water containing 0.1% formic acid and internal standard to terminate the reaction. 1 mM NADPH was immediately added and the tube was returned to the water bath. Five sample time points were taken (0, 10, 20, 30, and 60 minutes). Aliquots were removed and combined with 50/50 acetonitrile/water containing 0.1% formic acid and internal standard to terminate the reaction. The samples were mixed for 10 minutes and centrifuged. The supernatant from each sample was diluted (if necessary) and then transferred to vials for analysis by LC-MS/MS for the test compound and internal standard without calibration standards. The percent remaining at each time point was determined by the test compound's peak area response ratio versus the 0 minute sample.

IC50 (SK-Mel-103) [nM] | IC50 (SK-Mel-19) [nM] | Percent Remaining 0 min (in vitro; human) [%] | Percent Remaining 10 min (in vitro; human) [%] | Percent Remaining 20 min (in vitro; human) [%] | Percent Remaining 30 min (in vitro; human) [%] | Percent Remaining 60 min (in vitro; human) [%] | half-life at 1 µM (in vitro; human) [min] | microsomal CLint at 1 μM (in vitro; human) [µL/min/mg] | Percent Remaining 0 min (in vitro; mouse) [%] | Percent Remaining 10 min (in vitro; mouse) [%] | Percent Remaining 20 min (in vitro; mouse) [%] | Percent Remaining 30 min (in vitro; mouse) [%] | Percent Remaining 60 min (in vitro; mouse) [%] | half-life at 1 µM (in vitro; mouse) [min] | microsomal CLint at 1 μM (in vitro; mouse) [µL/min/mg] | Structure (SMILES) | further results
– | – | – | – | – | – | – | – | – | – | – | – | – | – | – | – | COCc1cc(CN(C)C2CCCCC2)c(O)c2ncccc12 [Compound N269D8] | Myc Index N (HO-N-myc cells; ID50 in HO-null cells divided by ID50 in HO—N-myc cells): 5.3; IC50 (HO-N-myc cells; Rattus norvegicus, cell growth inhibition, 72 h, methylene blue, read-out: ID50 HO—N-myc): 850 nM; Myc Index C (HO-c-Myc cells; ID50 in HO-null cells divided by ID50 in HO-c-myc cells): 6.3; IC50 (HO-c-Myc cells; Rattus norvegicus, cell growth inhibition, 72 h, methylene blue, read-out: ID50 HO-c-myc): 720 nM; IC50 (HO-null cells): 4520 nM; toxicity to N-myc amplified lines versus SH-EP cells [1]: more toxic to the N-myc amplified cell lines, IMR32 and NBL-WN than to SH-EP cells
250 | 350 | 100 | 49 | 31 | 18 | 6.9 | 11.5 | 120 | 100 | 20 | 8.9 | 4.3 | 1.2 | 4.6 | 300 | CCN(CC)Cc1c(C(=O)N/N=C/c2ccc(N(CC)CC)cc2O)nnn1-c1nonc1N [Compound 6] | –
500 | 500 | 100 | 93 | 66 | 49 | 24 | 29.5 | 47 | 100 | 39 | 12 | 3.7 | <1.0 | 7 | 200 | CCN(CC)c1ccc(/C=N/NC(=O)c2cc(C)n[nH]2)c(O)c1 [Compound 3] | –
